What was measured:
engineered cell lines = assay: Selectivity across the engineered cell lines (calcein AM IC50 ratios); assay type: cell-based, human; settings: from selectivity ratio for each subsequent pair of cell lines in a series
Description: To calculate this selectivity score between two cell lines, the IC50 for a compound in one cell line was divided by the IC50 for the same compound in a second cell line. […] The “tumor selectivity score” was calculated for each compound, by dividing the IC50 value for the compound in the parental, primary BJ cells by the IC50 value for the compound in engineered BJ-TERTALT/ST/RAS^V12 cells, containing all four genetic elements required to create tumorigenic cells (Table 1).
Applicants sought to determine the genetic basis of selectivity for each compound. That is, for each compound, they attempted to define the gene or combination of genes responsible for rendering cells sensitive to the compound (Table 1).
The IC50 in primary BJ cells was divided by the IC50 in BJ-TERT/LT/ST/RAS^V12 tumorigenic cells to obtain a tumor selectivity ratio for each compound. The compound selectivity for each genetic element was determined by calculating the selectivity ratio for each subsequent pair of cell lines in a series.

[1] = test system: BJ-TERT/LT/ST/RAS^V12 cells; assay: Nuclear morphology assay; assay type: cell-based, human
Text: Applicants sought to characterize the type of cell death induced by CPT and erastin in tumorigenic BJ-TERT/LT/ST/RAS^V12 cells. […] To determine whether erastin or CPT induces apoptosis in their system, Applicants monitored the nuclear morphology of CPT- and erastin-treated tumorigenic cells using fluorescence microscopy. […] Since nuclear morphological change is required of apoptotic cells, Applicants conclude that cell death induced by erastin is non-apoptotic. […] Additionally, nuclei remained intact in erastin-treated tumor cells (FIG. 9).
200,000 tumorigenic BJ-TERT/LT/ST/RAS^V12 cells were seeded in 2 mL on glass coverslips in each well of a six-well dish, treated with nothing (NT), 9 μM erastin or 1.1 μM camptothecin (CPT) in growth medium for 18 hours while incubating at 37° C. with 5% CO2. Nuclei were stained with 25 μg/mL Hoechst 33342 (Molecular Probes) and viewed using an oil immersion 100× objective on a fluorescence microscope.

[2] = test system: BJ-TERT/LT/ST/RAS^V12 cells; assay: Western blot for active caspase-3; assay type: cell-based, human
Description: BJ-TERT/LT/ST/RAS^V12 cells were seeded prior to the experiment at 5×10^5 cells in 60 mm dishes. The cells were treated with 5 μg/ml erastin (9 μM) for 2, 4, 6, 8 or 10 hours. One dish was maintained for camptothecin treatment (0.4 μlg/ml for 24 h) as a positive control. Cells were lysed after each time point in lysis buffer (50 mM HEPES KOH pH 7.4, […], 2 mM EDTA, 0.5% Triton X-100, 1.5 mM Na3VO4, 50 mM NaF, 10 mM sodium pyrophosphate, 10 mM sodium beta-glycerophosphate and protease inhibitor tablet (Roche)). Protein content was quantified using a Biorad protein assay reagent. Equal amounts of protein were resolved on 16% SDS-polyacrylamide gel. The electrophoresed proteins were transblotted onto a PVDF membrane, blocked with 5% milk and incubated with anti-active caspase-3 polyclonal antibody (BD Pharmingen) at 1:1500 dilution overnight at 4° C. The membrane was then incubated in anti-rabbit-HRP (Santa Cruz Biotechnology) at 1:3000 dilution for 1 hour and developed with an enhanced chemiluminescence mixture (NEN life science, Renaissance). To test for equivalent loading in each lane, blots were stripped, blocked, and probed with an anti-eIF-4E antibody (BD Transduction laboratories) at 1:1000 dilution.

TIP5-TERT/E6E7/ST cells = assay: Calcein AM viability assay, TIP5-TERT/E6E7/ST cells; assay type: cell-based, human; settings: 16-point two-fold dilution
Description: (§1) Described here is work carried out to identify compounds with increased potency or activity in the presence of hTERT, LT, ST, E6, E7 or RAS^V12. Although the work described herein made use of hTERT, LT, ST, E6, E7 and RAS^V12 as transforming genes, future studies can make use of a wide variety of cancer-associated alleles using this methodology in order to define the signaling networks that involve many oncogenes and tumor suppressors. […] Cell viability was measured using the dye calcein acetoxymethyl ester (calcein AM) (Wang et al., 1993, Hum. Immunol. 37, 264-270), which is a non-fluorescent compound that freely diffuses into cells. […]
(§2) Calcein acetoxylmethyl ester (AM) is a cell membrane-permeable, non-fluorescent compound that is cleaved by intracellular esterases to form the anionic, cell-impermeable, fluorescent compound calcein. […] Total fluorescence intensity in each well was recorded on a Packard Fusion platereader, and converted to a percent inhibition of signal by subtracting the instrument background and dividing by the average signal obtained when cells were not treated with any compound. […]
(§3) Mean RFU (relative fluorescence units) for untreated cells was calculated by averaging columns 1, 2, and 23 (wells with cells but lacking compounds). The calcein background was calculated by averaging column 24 (wells with calcein, but lacking cells). […]

TIP5-TERT cells = assay: Calcein AM viability assay, TIP5-TERT cells; assay type: cell-based, human; settings: 16-point two-fold dilution
Description: as §1, §2, §3

BJ primary cells [3] = assay: Calcein AM viability assay, BJ cells; assay type: cell-based, human; settings: 16-point two-fold dilution
Description: as §1, §2, §3

TIP5-TERT/LT cells = assay: Calcein AM viability assay, TIP5-TERT/LT cells; assay type: cell-based, human; settings: 16-point two-fold dilution
Description: as §1, §2, §3

TIP5-TERT/E6E7 cells = assay: Calcein AM viability assay, TIP5-TERT/E6E7 cells; assay type: cell-based, human; settings: 16-point two-fold dilution
Description: as §1, §2, §3

BJ-TERT/LT/ST cells = assay: Calcein AM viability assay, BJ-TERT/LT/ST cells; assay type: cell-based, human; settings: 16-point two-fold dilution
Description: as §1, §2, §3

[4] = test system: TIP5-TERT/LT/ST/Ras^v12 cells; assay: Calcein AM viability assay, TIP5-TERT/LT/ST/Ras^v12 cells; assay type: cell-based, human; settings: 16-point two-fold dilution
Description: as §1, §2, §3

[5] = test system: BJ-TERT/LT/RAS^V12/ST cells; assay: Calcein AM viability assay, BJ-TERT/LT/RAS^V12/ST cells; assay type: cell-based, human; settings: 16-point two-fold dilution
Description: as §1, §2, §3

[6] = test system: TIP5-TERT/E6E7/ST/Ras^v12 cells; assay: Calcein AM viability assay, TIP5-TERT/E6E7/ST/Ras^v12 cells; assay type: cell-based, human; settings: 16-point two-fold dilution
Description: as §1, §2, §3

[7] = test system: BJ-TERT/LT/ST/RAS^V12 tumorigenic cells; assay: Calcein AM viability assay, BJ-TERT/LT/ST/RAS^V12 cells; assay type: cell-based, human; settings: BJ-TERT/LT/ST/Ras^v12; 16-point two-fold dilution
Text: as §1, with “suppressors. Engineered cell lines with these genetic elements were used to screen 23,550 compounds, including 20,000 compounds from a combinatorial library, 1,990 compounds from the National Cancer Institute diversity collection, and 1,540 biologically active known compounds that were selected and purchased by Applicant and formatted into a screenable collection.” for “suppressors.”
as §2
as §3, with “cells). Percentage inhibition of each well was calculated as [1−(RFU−calcein control)/(untreated cell−calcein control)*100].” for “cells).”

BJ primary cells [8] = assay: Sensitization of BJ primary cells by co-treatment (calcein AM viability); assay type: cell-based, human
Text: (A-C) Western blot of lysates from BJ, BJ-TERT, BJ-TERT/LT/ST, BJ-TERT/LT/ST/RAS^V12, BJ-TERT/LT/RAS^V12 and BJ-TERT/LT/RAS^V12/ST cells with an antibody directed against topoisomerase II (A) or TOPI (B, C). In panel (C), cells were transfected with a siRNA directed against TOPI, lamic A/C or with a control double strand DNA duplex of the same length (TOPI dsDNA). In each case, the blot was probed with an antibody against eIF-4E to identify differences in the amount of protein loaded. The relative amount is quantitated below each band. (D) A TOPI siRNA prevents cell death caused by camptothecin in engineered tumor cells. Cell number was determined after transfection with a siRNA directed against TOPI and treatment with the indicated concentrations of camptothecin. (E) Okadaic acid, an inhibitor of PP2A and other cellular phosphatases, sensitizes primary human cells to camptothecin. BJ primary cells were treated simultaneously with the indicated concentrations of both camptothecin and okadaic acid and the effect on calcein AM viability staining was determined. […] BJ primary cells were treated with the indicated concentrations of okadaic acid and the expression level of TOPI was determined by western blot. The relative amount is quantitated below each band.
The compounds in group (iii) are camptothecin (CPT) and a novel compound from a combinatorial library, which Applicants have named erastin, for eradicator of RAS and ST-expressing cells (FIG. 2). Efficient CPT-induced and erastin-induced cell death requires the presence of both ST and RAS^V12 (FIGS. 3 and 4 and Table 1). Although CPT and erastin have a similar genetic basis of selectivity, they have distinct mechanisms of action. CPT is partially active in cells lacking RB function (via expression of E7), whereas erastin is not, and CPT requires two days to cause death in BJ-TERT/LT/ST/RAS^V12 cells, while erastin is 100% effective within 18 hours (FIGS. 3 and 4). […]

TOP1 = assay: Western blot for TOP1 expression in BJ primary cells; assay type: cell-based, human
Text: (A-C) Western blot of lysates from BJ, BJ-TERT, BJ-TERT/LT/ST, BJ-TERT/LT/ST/RAS^V12, BJ-TERT/LT/RAS^V12 and BJ-TERT/LT/RAS^V12/ST cells with an antibody directed against topoisomerase II (A) or TOPI (B, C). In panel (C), cells were transfected with a siRNA directed against TOPI, lamic A/C or with a control double strand DNA duplex of the same length (TOPI dsDNA). In each case, the blot was probed with an antibody against eIF-4E to identify differences in the amount of protein loaded. The relative amount is quantitated below each band. (D) A TOPI siRNA prevents cell death caused by camptothecin in engineered tumor cells. Cell number was determined after transfection with a siRNA directed against TOPI and treatment with the indicated concentrations of camptothecin. (E) Okadaic acid, an inhibitor of PP2A and other cellular phosphatases, sensitizes primary human cells to camptothecin. BJ primary cells were treated simultaneously with the indicated concentrations of both camptothecin and okadaic acid and the effect on calcein AM viability staining was determined. […] BJ primary cells were treated with the indicated concentrations of okadaic acid and the expression level of TOPI was determined by western blot. The relative amount is quantitated below each band. […]

[9] = test system: tumor cells versus normal cells; assay: Erastin analogs tested for activity and selectivity in tumor cells versus normal cells; assay type: cell-based
Text: Applicants additionally tested 135 analogs of erastin for activity and selectivity in tumor cells versus normal cells. […] This compound was named erastin B (see FIG. 8). In certain embodiments of the invention, the invention relates to the compound, erastin.
Applicants additionally tested other analogs of erastin for activity and selectivity in tumor cells versus normal cells. […] This compound was named erastin B (see FIG. 8). BJELR cells are BJ-TERT/LT/ST/RAS^V12 cells, and BJEH are BJ-TERT cells.

Compound: CC[C@@]1(O)C(=O)OCc2c1cc1n(c2=O)Cc2cc3ccccc3nc2-1 [Camptothecin]
- Genetic basis of Selectivity (engineered cell lines): RAS^v12/PP2A/RB
- nuclear morphology by fluorescence microscopy ([1]; 9 μM erastin or 1.1 μM camptothecin, 18 hours): karyorhexis and margination of chromatin were clearly visible
- fragmented nuclei ([1]; BJ-TERT/LT/ST/RAS^V12 cells): 10-20 % of total nuclei
- cleaved, active caspase 3 [2]: appearance of cleaved, active caspase 3

Compound: Cc1c2ccccc2c(CSC(=N)N)c2ccccc12.Cl [NSC146109]
- concentration required to achieve 50% inhibition of calcein AM staining (IC50) (TIP5-TERT/E6E7/ST cells): 2.5 µg/mL
- concentration required to achieve 50% inhibition of calcein AM staining (IC50) (TIP5-TERT cells): >5 µg/mL
- Genetic basis of Selectivity (engineered cell lines): non-specific
- concentration required to achieve 50% inhibition of calcein AM staining (IC50) (BJ primary cells [3]): >5 µg/mL
- concentration required to achieve 50% inhibition of calcein AM staining (IC50) (TIP5-TERT/LT cells): >5 µg/mL
- concentration required to achieve 50% inhibition of calcein AM staining (IC50) (TIP5-TERT/E6E7 cells): 2.5 µg/mL
- concentration required to achieve 50% inhibition of calcein AM staining (IC50) (BJ-TERT/LT/ST cells): 2.5 µg/mL
- concentration required to achieve 50% inhibition of calcein AM staining (IC50) [4]: 2.5 µg/mL
- concentration required to achieve 50% inhibition of calcein AM staining (IC50) [5]: 2.5 µg/mL
- concentration required to achieve 50% inhibition of calcein AM staining (IC50) [6]: 2.5 µg/mL
- concentration required to achieve 50% inhibition of calcein AM staining (IC50) [7]: 2.5 µg/mL

Compound: C=C1[C@@H](O)[C@@H]2O[C@]3(CC[C@H](/C=C/[C@@H](C)[C@@H]4CC(C)=C[C@@]5(O[C@H](C[C@@](C)(O)C(=O)O)CC[C@H]5O)O4)O3)CC[C@H]2O[C@@H]1[C@@H](O)C[C@H](C)[C@H]1O[C@@]2(CCCCO2)CC[C@H]1C [okadaic acid]
- sensitization to camptothecin (BJ primary cells [8]; BJ (or BJ-TERT) cells, simultaneous treatment with camptothecin): renders BJ cells sensitive to camptothecin
- sensitization to erastin (BJ primary cells [8]; BJ or BJ-TERT cells): does not render BJ or BJ-TERT cells sensitive to erastin
- expression level of TOP1 by western blot (TOP1): stimulates expression of TOP1

Compound: erastin B
- activity and selectivity of erastin analogs/derivatives [9]: active and selective, but less potent than erastin

— patent US7615554B2, “Erastin and erastin binding proteins, and uses thereof” (Prolexys Pharmaceuticals, Inc., priority 2005, dated 2009)
